According to patent US6916805B2, “Quinoxalinones as serine protease inhibitors” (Warner-Lambert Company LLC, priority 1998, dated 2005):

Columns and labels:
human factor Xa = molecular target: T1, human factor Xa (Homo sapiens, UniProt P00742); test: Factor Xa IC50, cleavage of chromogenic substrate S2765; type: biochemical
T1 construct: 145 μL human factor Xa (1 nM final, Enzyme Research Laboratories); purchased Enzyme Research Laboratories
Experimental: The ability of compounds to act as inhibitors of human factor Xa catalytic activity is assessed by determination of that concentration of test substance that inhibits by 50% (IC50) the ability of human factor Xa to cleave the chromogenic substrate S2765 (N-CBz-D-Arg-L-Gly-L-Arg-p-nitroanilide. 2HCl, DiaPharma). Typically, 145 μL human factor Xa (1 nM final, Enzyme Research Laboratories) in 10 mM HEPES, 150 mM NaCl, 0.1% BSA, pH 7.4 (HBSA buffer), and 5 μL of test substance in DMSO (2% final) are incubated for 60 minutes at room temperature. Following preheating to 37° C. for 5 minutes, to this mixture is added 100 μL of S2765 in HBSA buffer. The velocity of S2765 hydrolysis is determined at 37° C. by measuring the initial rate of change of the optical density at OD405 nm every 10 seconds for 5 minutes using a ThermoMax® Kinetic Microplate Reader.

human thrombin = molecular target: T2, human thrombin (Homo sapiens, UniProt P00734); test: Thrombin IC50, cleavage of Chromozym TH; type: biochemical
T2 construct: purchased Enzyme Research Laboratories
Experimental: The ability of compounds to act as inhibitors of human thrombin catalytic activity is assessed by determination of that concentration of test substance that inhibits by 50% (IC50) the ability of human thrombin to cleave the chromogenic substrate Chromozym TH (Tosyl-Gly-Pro-Arg-pNA*Ac, Boehringer Mannheim). Typically, 145 μL human thrombin (0.75 nM, Enzyme Research Laboratories) in a HPB buffer (10 mM HEPES, 100 mM NaCl, 0.05% BSA, 0.1% PEG-8000, pH 7.4) and 5 μL of test substance in DMSO (2% final) are incubated for 60 minutes at room temperature. Following preheating to 37° C. for 5 minutes, to this mixture is added 100 μL of Chromozym TH in HPB buffer. The velocity of Chromozym TH hydrolysis is determined at 37° C. by measuring the initial rate of change of the optical density at OD405 nm every 10 seconds for 5 minutes using a ThermoMax® Kinetic Microplate Reader.

human trypsin = test: Trypsin IC50, cleavage of S2222; type: biochemical
Experimental: The ability of compounds to act as inhibitors of human trypsin catalytic activity is assessed by determination of that concentration of test substance that inhibits by 50% (IC50) the ability of human trypsin to cleave the chromogenic substrate S2222 (N-Bz-L-Ile-L-Glu-L-Gly-L-Arg-p-nitroanilide. HCl, DiaPharma). Typically, 145 μL human trypsin (0.5 nM final) in 10 mM HEPES, 150 mM NaCl, 0.1% BSA, and 5 μL of the test substance in DMSO (2% final) are incubated for 60 minutes at room temperature. Following preheating to 37° C. for 5 minutes, to this mixture is added 100 μL of S2222 in HBSA buffer (100 μM final), and the velocity of S2222 hydrolysis is determined at 37° C. by measuring the optical density at OD405 nm every 10 seconds over 5 minutes using a ThermoMax® Kinetic Microplate Reader.

[1] = molecular target: T3, human tissue factor/factor VIIa complex (Homo sapiens, UniProt P08709); test: Tissue factor/factor VIIa inhibition, cleavage of Spectrozyme VIIa; type: biochemical; details: read-out: VIIa % inhib. @ 100 μM
T3 construct: 50 μL human factor VIIa (Enzyme Research Laboratories); purchased Enzyme Research Laboratories (factor VIIa); American Diagnostica (recombinant tissue factor)
Experimental: The ability of compounds to act as inhibitors of the catalytic activity of human tissue factor/factor VIIa complex is assessed by determination of that concentration of test substance that inhibits by 50% (IC50 the ability of a complex of human recombinant tissue factor/factor VIIa to cleave the chromogenic substrate Spectrozyme VIIa (CH3SO2-D-CHA-Arg-pNA*AcOH, American Diagnostica). Typically, 50 μL human factor VIIa (Enzyme Research Laboratories) is incubated for 10 minutes as a 1:1 mixture (5 nM final each) with 95 μL recombinant human tissue factor (American Diagnostica) in a modified HBSA buffer (10 mM Hepes, 5 mM CaCl2, 0.1% BSA, pH 8.0). Then, 5 μL of the test substance in DMSO (2% final) is added and incubated for 60 minutes at room temperature. Following preheating to 37° C. for 5 minutes, to this mixture is added 100 μL of Spectrozyme VIIa (500 μM final) in modified HBSA, and the velocity of Spectrozyme VIIa hydrolysis is determined at 37° C. by measuring the optical density at an OD405 nm every 10 seconds over 5 minutes using a ThermoMax® Kinetic Microplate Reader.

[2] = molecular target: T4, human prothrombinase (PTase) complex (Homo sapiens, UniProt P00742); test: In vitro assay for human prothrombinase; type: biochemical; details: PTase activity expressed by thrombin activity
T4 construct: 2.5 pM human factor Xa (Enzyme Research Laboratories); purchased Enzyme Research Laboratories
Experimental: For determination of IC50 (PTase) of the compounds of the invention, PTase activity was expressed by thrombin activity.
PTase reaction was performed in 100 μL of mixture containing PTase (20 μM) PCPS (Avanti Polar Lipids following a procedure modified from Barenholz et al., Biochemistry, 1977;16:2806-2810) in a 30:70 ratio, 2.5 nM human factor Va (Enzyme Research Laboratories), and 2.5 pM human factor Xa (Enzyme Research Laboratories) in modified HEPES buffer (10 mM Hepes, 150 mM NaCl, 0.1% PEG-8000, 0.05% BSA, 2.5 mM CaCl2, pH 7.4), 3 μM human prothrombin (Enzyme Research Laboratories) and varied concentrations of the test compounds (1 nM to 100 μM in DMSO, 2% final). Reaction was started by co-incubating PTase with test compound for 60 minutes at room temperature, followed by addition of prothrombin for 6 minutes at room temperature. Next, the reaction was quenched by the addition of 100 μL of 20 mM EDTA. Activity of the thrombin (product) is then measured in the presence of 50 μL S2238 (250 μM final, H-D-Phe-Pip-Arg-pNA*Ac, DiaPharma) as substrate by measuring the change at 37° C. in OD405 nm for 5 minutes at 10 second intervals using a ThermoMax® Kinetic Microplate Reader.

[3] = system: pooled plasma from human volunteers; test: In vitro diluted prothrombin time (dPT) assay; type: biochemical
Experimental: Rat, rabbit, dog, and human blood (typically 1.8 mL) was collected and added to a sodium citrate solution (3.8%) to afford a 1:10 dilution. After centrifugation (2000 g for 10 minutes), the blood plasma was stored at −70° C. to 0° C. Conventional prothrombin time (PT) tests were carried out in the presence of various concentrations of test compound and the concentration of test compound required to double the clotting time determined. Typically, the test compound (50 μL volume of varying concentrations 0.1 μM to 1000 μM) and blood plasma (100 μL volume) were incubated at 37° C. for 10 minutes, and then tissue thromboplastin, typically Neoplastine from American Bioproducts, with calcium was added. Fibrin formation and the time required for a clot to form were determined using an automated ST4 Clot Detection System in duplicate.
The effects of Example 2 on dPT were evaluated using pooled plasma from human volunteers.

[4] = system: rabbit veno-venous shunt model of thrombosis; test: Rabbit veno-venous shunt model of thrombosis; type: in vivo
Experimental: The effects of Example 2 on thrombosis and hemostasis has been studied in a rabbit veno-venous shunt model of thrombosis. In that model, a plastic shunt which contains cotton thread was inserted into abdominal vena cava and thrombus developed inside the shunt under control conditions. The end points of the experiment are the time to occlusion (TTO) and thrombus weight. Example 2 was given to the rabbit via jugular vein as a single bolus followed by constant infusion for 140 minutes. Three doses have been tested in a total of 15 rabbits (5 rabbits in each group): 30 μg/kg+1 μg/kg/min, 60 μg/kg+2 μg/kg/min, and 480 μg/kg+16 μg/kg/min. […] In the highest dose group, TTO was increased from 17 minutes under control condition to 100 minutes. The net thrombus weight was reduced from 50 to 20 mg in that group. Example 2, at the highest dose, prolonged aPTT, PT, by 5-, and 3.9-fold, respectively.

[5] = system: dog electrolytic injury model of thrombosis; test: Dog electrolytic injury model of thrombosis; type: in vivo
Text: The effects of Example 2 on thrombosis and hemostasis has been studied in a dog electrolytic injury model of thrombosis. In this model, the thrombosis influencing event is an electrical current is applied to the femoral vein (or artery) by applying an anodal direct current (300 uA) to the intimal surface of the vessel in the presence of restricted blood flow (Goldblatt clamps placed around the vessel). The end points of the experiment are the time to occlusion (TTO) and thrombus weight. […] In the highest dose group, TTO was increased to near maximal effect of 240 minutes in both arteries and veins. The net thrombus weight was reduced from 50 mg to 18 mg [artery] and 110 mg to 15 mg [vein] in the highest dose group. Example 2, at the highest dose, prolonged aPTT, PT, by 1.4-, and 1.75-fold, respectively.

[6] = three doses, bolus + infusion 140 minutes
[7] = infusion 2.5, 5 and 10 μg/kg/min

T1 sequence (P00742 235-488 limits assumed): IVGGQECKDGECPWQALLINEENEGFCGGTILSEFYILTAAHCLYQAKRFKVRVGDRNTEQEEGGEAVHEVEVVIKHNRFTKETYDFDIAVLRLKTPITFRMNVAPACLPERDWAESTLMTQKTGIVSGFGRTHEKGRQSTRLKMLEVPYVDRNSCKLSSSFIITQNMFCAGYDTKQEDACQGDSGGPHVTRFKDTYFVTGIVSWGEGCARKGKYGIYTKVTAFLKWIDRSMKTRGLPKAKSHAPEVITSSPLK
T1 sequence (P00742 41-179 limits assumed): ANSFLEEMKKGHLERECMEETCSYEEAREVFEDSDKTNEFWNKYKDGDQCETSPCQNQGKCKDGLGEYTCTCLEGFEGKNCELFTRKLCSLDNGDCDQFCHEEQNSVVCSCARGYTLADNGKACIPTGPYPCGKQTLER
T3 sequence (P08709 213-466 limits assumed): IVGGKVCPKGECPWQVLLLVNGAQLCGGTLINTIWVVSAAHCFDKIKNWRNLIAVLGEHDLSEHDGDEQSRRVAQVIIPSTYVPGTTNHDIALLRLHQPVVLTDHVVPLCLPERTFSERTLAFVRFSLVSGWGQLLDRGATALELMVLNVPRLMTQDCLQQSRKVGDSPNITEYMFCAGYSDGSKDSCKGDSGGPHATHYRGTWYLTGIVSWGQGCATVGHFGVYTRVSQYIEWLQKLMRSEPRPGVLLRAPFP
T3 sequence (P08709 61-212 limits assumed): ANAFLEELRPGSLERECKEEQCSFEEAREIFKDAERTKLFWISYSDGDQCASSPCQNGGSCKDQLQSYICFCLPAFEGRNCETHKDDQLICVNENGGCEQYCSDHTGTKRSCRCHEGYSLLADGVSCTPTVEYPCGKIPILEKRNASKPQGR
T3 sequence (P13726 33-295 partner): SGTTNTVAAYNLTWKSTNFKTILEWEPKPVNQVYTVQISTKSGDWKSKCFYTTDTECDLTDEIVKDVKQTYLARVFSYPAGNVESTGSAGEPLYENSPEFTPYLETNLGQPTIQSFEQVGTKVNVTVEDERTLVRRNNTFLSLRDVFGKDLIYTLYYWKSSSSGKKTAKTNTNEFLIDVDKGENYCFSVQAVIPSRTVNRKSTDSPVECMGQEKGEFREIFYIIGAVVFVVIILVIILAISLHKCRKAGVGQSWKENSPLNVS
T4 sequence (P00742 235-488 limits assumed): as the sequence (P00742 235-488 limits assumed) above
T4 sequence (P00742 41-179 limits assumed): as the sequence (P00742 41-179 limits assumed) above
T4 sequence (P12259 29-737 partner limits assumed): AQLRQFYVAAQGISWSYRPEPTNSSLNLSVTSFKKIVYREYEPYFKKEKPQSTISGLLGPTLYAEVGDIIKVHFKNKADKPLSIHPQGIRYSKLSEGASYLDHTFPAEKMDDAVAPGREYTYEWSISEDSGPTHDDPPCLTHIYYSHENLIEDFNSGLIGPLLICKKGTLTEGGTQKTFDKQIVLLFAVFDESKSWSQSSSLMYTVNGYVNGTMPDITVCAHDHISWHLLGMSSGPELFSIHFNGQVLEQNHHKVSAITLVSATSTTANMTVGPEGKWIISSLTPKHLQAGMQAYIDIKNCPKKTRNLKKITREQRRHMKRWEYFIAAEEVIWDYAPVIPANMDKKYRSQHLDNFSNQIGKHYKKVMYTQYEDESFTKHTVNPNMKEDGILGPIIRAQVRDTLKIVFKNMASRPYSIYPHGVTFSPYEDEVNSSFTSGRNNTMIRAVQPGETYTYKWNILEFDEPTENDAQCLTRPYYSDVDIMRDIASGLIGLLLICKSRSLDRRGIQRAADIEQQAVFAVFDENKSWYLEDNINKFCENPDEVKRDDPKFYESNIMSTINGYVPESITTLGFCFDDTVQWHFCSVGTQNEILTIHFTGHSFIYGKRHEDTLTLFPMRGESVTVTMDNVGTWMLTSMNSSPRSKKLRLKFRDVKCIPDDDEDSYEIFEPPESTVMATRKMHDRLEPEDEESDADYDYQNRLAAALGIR
T4 sequence (P12259 1574-2224 partner limits assumed): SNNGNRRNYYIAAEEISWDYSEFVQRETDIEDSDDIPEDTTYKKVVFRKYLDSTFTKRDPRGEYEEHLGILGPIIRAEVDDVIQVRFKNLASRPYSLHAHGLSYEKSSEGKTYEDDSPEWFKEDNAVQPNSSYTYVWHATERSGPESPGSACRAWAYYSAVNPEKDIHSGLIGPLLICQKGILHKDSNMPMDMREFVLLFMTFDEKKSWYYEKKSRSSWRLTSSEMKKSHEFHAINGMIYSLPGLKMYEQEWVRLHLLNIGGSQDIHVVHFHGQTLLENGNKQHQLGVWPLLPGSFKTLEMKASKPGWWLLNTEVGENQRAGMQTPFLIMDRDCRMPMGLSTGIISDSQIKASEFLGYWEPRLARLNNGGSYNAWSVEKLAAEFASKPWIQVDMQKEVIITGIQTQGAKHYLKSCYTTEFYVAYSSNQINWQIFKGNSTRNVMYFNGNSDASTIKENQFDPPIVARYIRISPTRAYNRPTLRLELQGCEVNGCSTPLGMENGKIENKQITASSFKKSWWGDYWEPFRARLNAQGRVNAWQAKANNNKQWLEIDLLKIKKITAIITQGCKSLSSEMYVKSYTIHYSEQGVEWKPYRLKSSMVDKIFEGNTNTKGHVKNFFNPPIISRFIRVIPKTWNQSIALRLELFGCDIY

`C[C@@H]1CCC[C@H](C)N1CCCCCn1c(=O)c(-c2cccc(C(=N)N)c2)nc2ccccc21` [Example 1, 3-[3-(Amidino)phenyl]-1-{5-[(2R,6S)-2,6-dimethylhexahydro-1-pyridinyl]pentyl}-1,2-dihydro-2-quinoxalinone] was tested, and the IC50 (human factor Xa) was 0.065 µM, the IC50 (human thrombin) was 2.96 µM and the IC50 (human trypsin) was 2.03 µM. It also gave an inhibition at 100 µM [1] of 16%.

Compound `C[C@@H]1CCC[C@H](C)N1CCCCCn1c(=O)c(-c2cc(C(=N)N)ccc2O)nc2ccccc21` [Example 2, 3-(4-5-[(2R,6S)-2,6-dimethyltetrahydro-1(2H)-pyridinyl]pentyl-3-oxo-3,4-dihydro-2-quinoxalinyl)-4-hydroxybenzenecarboximidamide] has an IC50 (human factor Xa) of 0.009 µM, an IC50 (human thrombin) of 7.02 µM and an IC50 (human trypsin) of 2.45 µM. For the same compound, the inhibition at 100 µM [1] was 13%, the IC50 [2] was 0.0015 µM and the “concentration which caused 2 fold prolongation of dPT” value [3] was 0.05 µM. For the same compound, the “fold increase in dPT” value ([3]; 0.1 μM) was 3.2 fold, the “effect on dPT” value ([3]; over concentrations) was “concentration-dependently prolonged dPT” and the “prolongation of PT” value ([4]; highest dose) was 3.9 fold. For the same compound, the “prolongation of aPTT” value ([4]; highest dose) was 5 fold, the net thrombus weight ([4]; highest dose 480 μg/kg + 16 μg/kg/min iv, control 50 mg) was 20 mg and the “time to occlusion (TTO)” value ([4]; highest dose 480 μg/kg + 16 μg/kg/min iv, control 17 minutes) was 100 min. For the same compound, the “effect on net thrombus weight” value [4, 6] was “reduced the net thrombus weight”, the “effect on time to occlusion” value [4, 6] was “dose-dependently prolonged the time to occlusion” and the “prolongation of PT” value ([5]; highest dose) was 1.75 fold. For the same compound, the “prolongation of aPTT” value ([5]; highest dose) was 1.4 fold, the “time to occlusion (TTO)” value ([5]; highest dose 10 μg/kg/min infusion, both arteries and veins) was about 240 min and the “net thrombus weight [artery]” value ([5]; highest dose 10 μg/kg/min, artery, control 50 mg) was 18 mg. The “net thrombus weight [vein]” value ([5]; highest dose 10 μg/kg/min, vein, control 110 mg) was 15 mg, the “effect on net thrombus weight” value [5, 7] was “reduced the net thrombus weight” and the “effect on time to occlusion” value [5, 7] was “dose-dependently prolonged the time to occlusion”.
